Assay [1] relates to S. aureus ATCC43300. In words: Cell membrane permeabilization, PI uptake assay. Type of assay: cell-based. The following applies: 16 μg/mL, at 20 min. On the procedure: The cell membrane permeabilization of compound 9h against S. aureus ATCC43300 was assessed by PI uptake assay. PI could only pass through the impaired cell membrane and had been widely used to evaluate the cell membrane permeability. When the cell membranes were disrupted, PI entered into the cell membrane, leading to a significant improvement in fluorescence intensity. Therefore, the degree of membrane damage could be reflected by observing the fluorescence intensity in S. aureus. […] Compared with the control group, the fluorescence intensity (at 20 min) increased approximately 5-fold after the addition of 9h (16 μg/mL).
Mid-log S. aureus ATCC43300 was collected and then washed with PBS three times. Bacterial suspension (1.0 × 10^8 CFU/mL, 150 μL) was added to a black 96-well plate; following this, fluorescent dye PI (10 μM, 50 μL) was added to each well of plates, and they were preincubated in the dark for 30 min. After the incubation, the fluorescence intensity was detected every minute for 6 min using a microplate reader (λex/λem = 535 nm/615 nm). […] The fluorescence intensity was determined similarly for another 14 min. All biological experiments were repeated three times.

The test system of assay [2] is S. aureus ATCC43300. As to the kind of experiment: ROS assay (DCFH-DA). Conditions: 16 μg/mL. Type of assay: cell-based. On the procedure:
It is known that the disruption of bacterial cell membranes often causes the production of ROS in bacterial cells. The fluorescent probe DCFH-DA was used to monitor the level of intracellular ROS produced by S. aureus ATCC43300. DCFH-DA is initially non-fluorescent; however, it undergoes hydrolysis to DCFH upon entry into the cell. Subsequently, DCFH is converted to the fluorescent compound DCF when ROS are produced in the cells. […] The fluorescence intensity of 9h was about 8-fold higher than the PBS-treated group when the concentration of 9h increased 16 μg/mL.
Mid-log S. aureus ATCC43300 was collected and resuspended in PBS. Bacteria suspension (1.0 × 10^8 CFU/mL) was placed into a 96-well plate, and an equal volume of DCF-DA (10.0 μM) was mixed and incubated at 37 °C for 30 min. After incubation, the suspension was centrifuged (3500 rpm, 4 min), and the supernatant was removed and resuspended in PBS. […] The fluorescence intensity of each well was recorded by a microplate reader (Ex = 488 nm and Em = 530 nm). All biological experiments were repeated three times.

The test system of assay [3] is S. aureus ATCC43300 biofilm formation. On the procedure:
Bacterial biofilms created by the aggregation of bacteria is considered as one of the main reasons for the development of drug resistance. […] Subsequently, we further assessed the efficiency of 9h to eradicate the preformed biofilm. Matured S. aureus biofilm (grown for 24 h) was treated with compound 9h, and the rate of biofilm disruption was then assessed by the crystal violet staining assay.
Biofilm inhibition assay: S. aureus ATCC43300 was cultured (37 °C, 200 rpm) in MHB broth for 5 h and diluted to 1 × 10^6 CFU/mL. […] The planktonic supernatant cells were discarded and washed with PBS three times. Then, methanol (150 µL) was added to each well for 30 min. After discarding methanol, 0.1% crystal violet solution (150 µL) was added, and biofilms were stained for 15 min. Next, crystal violet solution was removed and washed with PBS three times. Finally, ethanol (150 µL) was pipetted into the wells, and the OD values were measured at 575 nm. The biofilm inhibition (%) = (ODcompound − ODblank)/(ODpositive control − ODblank) × 100%.

In assay [4] the test system is Staphylococcus aureus ATCC31007, penicillin-resistant strain. In words: MIC, broth microdilution. It counts as cell-based. Conditions: Staphylococcus aureus ATCC31007; read-out: MIC S. a. 31007. The method in brief: (§1)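 Micro broth dilution (CLSI): TSB medium, twofold compound series, equal-volume bacterial suspension at 10^6 CFU/mL, incubation 37 °C for 24 h.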
Assay [5] concerns Acinetobacter baumannii ATCC19606. In words: MIC, broth microdilution. It counts as cell-based. Conditions: Acinetobacter baumannii ATCC19606; read-out: MIC A. b. 19606. The method in brief: as §1
Assay [6] relates to Pseudomonas aeruginosa ATCC27853, penicillin-susceptible strain. In words: MIC, broth microdilution. Conditions: Pseudomonas aeruginosa ATCC27853; read-out: MIC P. a. 27853. Type of assay: cell-based. The method, boiled down: as §1
For orientation: Dilution methods test growth across graded concentrations, often in twofold steps.

The subject of assay [7] is Staphylococcus aureus ATCC25923, erythromycin-susceptible strain. As to the kind of experiment: MIC, broth microdilution. Type of assay: cell-based. Conditions: Staphylococcus aureus ATCC25923; read-out: MIC S. a. 25923. The method in brief:
as §1

The test system of assay [8] is Staphylococcus epidermidis ATCC12228, erythromycin-susceptible strain. In words: MIC, broth microdilution. It counts as cell-based. Conditions: Staphylococcus epidermidis ATCC12228; read-out: MIC S. e. 12228. The method, boiled down:
as §1

Assay [9] deals with Enterococcus faecalis ATCC29212, vancomycin-susceptible strain. In words: MIC, broth microdilution. Type of assay: cell-based. Conditions: Enterococcus faecalis ATCC29212; read-out: MIC E. f. 29212. The method in brief:
as §1

The subject of assay [10] is Klebsiella pneumonia ATCC10031. In words: MIC, broth microdilution. The following applies: Klebsiella pneumoniae; Klebsiella pneumonia ATCC10031; read-out: MIC K. p. 10031. Type of assay: cell-based. The method, boiled down:
as §1

Assay [11] concerns Escherichia coli ATCC25922, penicillin-susceptible strain. As to the kind of experiment: MIC, broth microdilution. Type of assay: cell-based. The following applies: Escherichia coli ATCC25922; read-out: MIC E. c. 25922. The method, boiled down:
as §1

The subject of assay [12] is Bacillus subtilis ATCC9372, penicillin-susceptible strain. As to the kind of experiment: MIC, broth microdilution. It counts as cell-based. Conditions: Bacillus subtilis ATCC9372; read-out: MIC B. s. 9372. The method in brief:
as §1

Converted amounts (≈) assume the structure as drawn. Where two headings read alike, the source gives them in different places.

For `CC(=O)c1c(OCCCNCCCN2CCN(C)CC2)c2c(c3c1OC(C)(CCC=C(C)C)C=C3)OC(C)(CCC=C(C)C)C=C2` (stereo not shown) [Compound 9h, 1-(2,8-Dimethyl-2,8-bis(4-methylpent-3-en-1-yl)-5-(3-((3-(4-methylpiperazin-1-yl)propyl)amino)propoxy)-2H,8H-pyrano [2,3-f]chromen-6-yl)ethan-1-one], in the assay on S. aureus ATCC43300 [1], the “increase of PI fluorescence intensity vs control group” value is recorded as “approximately 5 fold”. For the same compound, the “ROS fluorescence intensity vs PBS-treated group” value in the assay with S. aureus ATCC43300 [2] was “about 8 fold”. Besides, the “inhibition of S. aureus biofilm formation” value was 8.65% in assay [3] (1× MIC (2 μg/mL)) and 10.87% in assay [3] (2× MIC). Also, the MIC in assay [4] was found to be 2 µg/mL (≈ 3.15 µM); in [5], 4 µg/mL (≈ 6.31 µM); in assay [6] it was 16 µg/mL (≈ 25.2 µM); in assay [7], 2 µg/mL (≈ 3.15 µM); in [8], 0.5 µg/mL (≈ 0.789 µM); in [9] it was 1 µg/mL (≈ 1.58 µM). Moreover, the MIC in [10] came out at 8 µg/mL (≈ 12.6 µM); in [11], 4 µg/mL (≈ 6.31 µM); in assay [12], 2 µg/mL (≈ 3.15 µM).

The MIC is the smallest concentration in the dilution series that meets the test's criterion for growth inhibition.
